Data as given in US20260108612A1, “BETA-PEPTIDES AND BETA-PEPTIDE HYDROGELS” (MONASH UNIVERSITY, priority 2022, published 2026).
Entries after “also recorded” stand apart in the source; their conditions may differ.

Tests used:
Format in all cases: physicochemical
[1] = Atomic force microscopy of peptide self-assembly; conditions: ultrapure water, 0.25 mg/mL
Experimental: To confirm the self-assembly of β-tetrapeptides 1 and 2 into fibres, atomic force microscopy (AFM) was performed on a Nanoscope IV AFM with a Multimode head using a vertical engage ‘E’ scanner. A 2 μL peptide solution in MilliQ (ultrapure) water (0.25 mg/mL) was prepared and placed on a clean mica surface. A low concentration of peptide was necessary to avoid contamination the probe. The peptide solution was air-dried for 30 minutes, followed by further drying with a stream of N2 gas. Images were obtained under tapping mode with NSC-15 ‘B’ silicon cantilevers (Micromasch, Tallinn, Estonia) with a nominal force constant of 40 and 20 N/m for 1 and 2, respectively. Topographic, phase and amplitude images at a resolution of 512×512 were simultaneously obtained using scan frequency of 1 Hz with typical scan sizes of 5 μm×5 μm and 2 μm×2 μm. Images were processed with a sequence of plane fitting and offset flattening using Gwyddion 2.29 (www.gwyddion.net) software.

[2] = Inversion test for hydrogel formation (gelation); conditions: for Gelation result: 37° C., 24 hours
Experimental: An inversion test was used to qualitatively assess different solvent conditions and concentrations of 1 and 2 for forming a non-flowing, self-supporting stable hydrogel (Liebman, T., et al., 2007). Peptide solubility was tested using a variety of solvents and solvent mixtures: MilliQ (ultrapure) water, phosphate buffered saline (PBS) 1× (Sigma P3813), PBS 10× (Sigma P3813) and Dulbecco's Modified Eagle's Medium/Nutrient Mixture F-12 Ham (DMEM/F12) (Sigma D8437). 100 μL or 50 μL of solvent was added to 0.5 mg of peptide in a glass vial to achieve a final concentration of 5 or 10 mg/mL, respectively. The solution was vortexed up to 30 mins until all the peptide particles had dissolved and left to self-assemble and gelate for 30 minutes at room temperature.

[3] = Rheological characterisation (parallel plate rheometer); conditions: strain sweep 1% to 100% over 20 minutes, 1 Hz, 37° C.
Experimental: Rheological measurements were undertaken using an Anton Paar Physical parallel plate rheometer at 37° C. Hydrogels were prepared in 75% MilliQ Water/25% DMEM/F12 using 10 mg/mL of the following: 100% 1, 50% 1/50% 2, and 100% 2. The hydrogel solutions were made just prior to experiment and vortexed thoroughly, and then immediately pipetted onto the base. A top plate with diameter 8 mm was lowered to form a measurement gap size of 0.1 mm. In an oscillatory time sweep test, the storage (elastic, G′) and loss (viscous, G″) moduli were measured with strain applied at 1% at a constant frequency of 1 Hz. For the cyclic step-strain test, after 20 minutes, the strain was increased to 100% for 1 minute to mechanically shear the hydrogel before it is returned to 1% strain. This was repeated an additional 2 times. The plateau modulus was calculated as the average of the storage modulus at the end of each 20-minute gelation cycle. A strain sweep was conducted from 1% to 100% strain over the 20 minutes with a constant frequency of 1 Hz. The gel-to-sol transition point was determined at the strain at which the storage and loss modulus equalled in value. A dynamic frequency sweep was performed from 0.01 to 10 Hz with a constant strain of 1%. All measurements were obtained in triplicate and all figures are presented as the average of those triplicates.

[4] = 50% MilliQ Water/50% DMEM/F12, 5 mg/mL
[5] = 50% MilliQ Water/50% DMEM/F12, 10 mg/mL
[6] = 75% MilliQ Water/25% DMEM/F12, 5 mg/mL
[7] = 75% MilliQ Water/25% DMEM/F12, 10 mg/mL

| spontaneous self-assembly into fibres (AFM) [1] | time within which the hydrogel reverts back to a solution ([2]; 1:1 MilliQ Water and DMEM/F12, both 5 and 10 mg/mL) | duration of stable hydrogel under physiological conditions ([2]; 3:1 MilliQ Water:DMEM/F12, 10 mg/mL) | Gelation result [2, 5] | Gelation result [2, 6] | Gelation result ([2]; DMEM/F12, 10 mg/mL) | peptide dissolution ([2]; MilliQ water, both 5 and 10 mg/mL) | peptide dissolution ([2]; 5 mg/mL, MilliQ water, PBS 1×, PBS 10×, DMEM and 50% MQ Water/50% DMEM/F12) | Strain for gel-to-sol Transition [3] | Compound | entanglement of the fibres (AFM) [1] | Gelation result [2, 4] | Gelation result [2, 7] | Gelation result ([2]; DMEM/F12, 5 mg/mL) | Gelation result ([2]; MilliQ water, 5 mg/mL) | Gelation result ([2]; MilliQ water, 10 mg/mL) | Gelation result ([2]; PBS 1×, 5 mg/mL) | Gelation result ([2]; PBS 1×, 10 mg/mL) | Gelation result ([2]; PBS 10×, 5 mg/mL) | Gelation result ([2]; PBS 10×, 10 mg/mL) |
| --- | --- | --- | --- | --- | --- | --- | --- | --- | --- | --- | --- | --- | --- | --- | --- | --- | --- | --- | --- |
| distinct nanofibres | ≤ 24 h | over several weeks | Unstable gel | Unstable gel | Poor dissolution | readily dissolved | – | – | CCCCCCCCCCCCCC(=O)NCC(CC(=O)NC(C)CC(=O)NC(CCCCN)CC(=O)NC1COC(=O)C1)NC(C)=O (stereo not drawn) [compound 1, Ac-Az(Myr)AKS*-Lac] | propensity for the nanofibres to aggregate together and form bundles | Unstable gel | long-lasting stable hydrogel; also recorded: Stable gel | Liquid (liquid (has the same flow as water)) | Liquid (liquid (has the same flow as water)) | more viscous solution; also recorded: Viscous liquid | Viscous liquid | prevented the peptide from being completely dissolved; also recorded: Poor dissolution | Viscous liquid | prevented the peptide from being completely dissolved; also recorded: Poor dissolution |
| distinct nanofibres | – | – | Unstable gel | Unstable gel | Unstable gel | – | readily dissolved | 31% | CCCCCCCCCCCCCC(=O)NCC(CC(=O)NC(C)CC(=O)NC(CC(=O)NC1COC(=O)C1)C(=O)NCCNC(=O)C(CC(=O)O)NC(=O)CNC(=O)C(CCCNC(=N)N)NC(C)=O)NC(C)=O (stereo not drawn) [compound 2, Ac-Az(Myr)AX(RGD)S*-Lac] | more wide-spread and mesh-like | liquid solution; also recorded: Liquid (liquid (has the same flow as water)) | Stable gel | liquid solution; also recorded: Liquid (liquid (has the same flow as water)) | liquid solution; also recorded: Liquid (liquid (has the same flow as water)) | Liquid (liquid (has the same flow as water)) | liquid solution; also recorded: Liquid (liquid (has the same flow as water)) | Viscous liquid | liquid solution; also recorded: Liquid (liquid (has the same flow as water)) | Poor dissolution |
